# Test results reported in patent US7932271B2, “Heterocyclic methyl sulfone derivative” (Daiichi Pharmaceutical Co., Ltd., priority 2003, dated 2011).
# Experiments:
# [1] = tested on: β amyloid protein (Aβ) secreted by E35 cells (human glioma H4 cells transfected with APP751 gene); test: Inhibition of production or secretion of β-amyloid protein (Aβ) in E35 cells, sandwich ELISA of the supernatant; format: cell-based; conditions: 24 hours with test compound, compared to DMSO control cells, read-out: Activity (IC50, concentration at which 50% inhibition of Aβ production was observed)
# Description: The inhibitory activity against formation of β amyloid protein of the compounds obtained in Examples was tested in the method described bellow.
# E35 cells were established by transfecting APP751 gene which is a wild type human β-amyloid protein precursor into human glioma cells (H4 cells).
# E35 cells were seeded in 96-well plates and cultured in an incubator of 37° C. by using a Dulbecco's Modified Eagle's Medium containing 10% inactivated fetal bovine serum (10% FBS-DMEM). Twenty-four hours after seeding, a test compound dissolved in DMSO so as to give its concentration to be 2000 times as much as that of the final concentration was added to the medium in an amount of 1/2000 capacity of the culture medium. The cells were cultured for additional twenty-four hours, and then the supernatant was collected. The amount of β amyloid protein (Aβ) secreted in the supernatant was measured by the sandwich enzyme-linked immunosorbent assay (ELISA). Described specifically, a monoclonal antibody 25-1, which recognized Aβ25-35, was immobilized onto a 96-well ELISA plate, followed by the incubation at 4° C. for 16 to 20 hours. After washing with a phosphate buffer (pH 7.4) (PBS), a biotinylated monoclonal antibody MA32-40, which recognized Aβ1-8, was added, and the plate was kept at 4° C. for 2 hours. After the supernatant was removed and the well was washed sufficiently with PBS, alkaline phosphatase-conjugated streptavidin was added to the plate. Absorbance was measured while adding BlouPhos (manufactured by KPL) as a substrate. An amount of Aβ contained in the supernatant was calculated using a calibration curve separately created using Aβ of a known concentration. IC50 of the test compound was presented as the concentration at which 50% inhibition of Aβ production was observed compared to the amount of Aβ of the control cells to which only DMSO was added.
# When there is at least 10-times difference between the IC50 and the concentration at which cytotoxicity appears, then the compound is judged as a compound having an inhibitory activity against production or secretion of β amyloid protein.
SMILES,melting point [°C],IC50 [1] [nM]
"O=S(=O)(c1ccc(Cl)cc1)C(c1cc(F)ccc1F)C1CCCCC1 (stereo not drawn) [Example 1, 2-[[(4-Chlorophenyl)sulfonyl](cyclohexyl)methyl]-1,4-difluorobenzene]",107 to 109,50 to 500
"O=S(=O)(c1ccc(Cl)cc1)C(c1cccnc1)c1cc(F)ccc1F (stereo not drawn) [Example 19, 3-[[(4-Chlorophenyl)sulfonyl]-(2,5-difluorophenyl)methyl]pyridine]",130 to 131,50 to 500
"O=S(=O)(c1ccc(Cl)cc1)C(c1ccncc1)c1cc(F)ccc1F (stereo not drawn) [Example 20, 4-[[(4-Chlorophenyl)sulfonyl]-(2,5-difluorophenyl)methyl]pyridine]",126 to 127,50 to 500
"O=S(=O)(c1ccc(Cl)cc1)C(c1ccc(C2OCCO2)cn1)c1cc(F)ccc1F (stereo not drawn) [Example 42, 2-[(4-Chlorophenylsulfonyl)-(2,5-difluorophenyl)methyl]-5-(1,3-dioxolan-2-yl)pyridine]",167 to 168,50 to 500
"O=S(=O)(c1ccc(Cl)cc1)C(c1ccc(CO)cn1)c1cc(F)ccc1F (stereo not drawn) [Example 43, 2-[(4-Chlorophenylsulfonyl)-(2,5-difluorophenyl)methyl]-5-(hydroxymethyl)pyridine]",151 to 152,50 to 500
"O=C(O)CCc1ccc(C(c2cc(F)ccc2F)S(=O)(=O)c2ccc(Cl)cc2)nc1 (stereo not drawn) [Example 46, 3-[6-[(4-Chlorophenylsulfonyl)-(2,5-difluorophenyl)methyl]pyridin-3-yl]propionic acid]",158 to 160,50 to 500
"O=S(=O)(c1ccc(Cl)cc1)C(c1cc(F)ccc1F)c1cc(N2CCOCC2)ncc1Cl (stereo not drawn) [Example 59, 4-[5-Chloro-4-[(4-chlorophenylsulfonyl)-(2,5-difluorophenyl)methyl]pyridin-2-yl]morpholine]",180 to 181,5 to 50
"O=S(=O)(c1ccc(Cl)cc1)C(c1cc(F)ccc1F)c1cc(NCCN2CCOCC2)ncc1Cl (stereo not drawn) [Example 106, 4-[2-[5-Chloro-4-[(4-chlorophenylsulfonyl)-(2,5-difluorophenyl)methyl]pyridin-2-yl]aminoethyl]morpholine]",,< 5
"NCC1CN(c2cc(C(c3cc(F)ccc3F)S(=O)(=O)c3ccc(Cl)cc3)c(Cl)cn2)CCO1 (stereo not drawn) [Example 114, 2-Aminomethyl-4-[5-chloro-4-[(4-chlorophenylsulfonyl)-(2,5-difluorophenyl)methyl]pyridin-2-yl]morpholine]",,5 to 50
"OC1CCN(c2cc(C(Sc3ccc(Cl)cc3)c3cc(F)ccc3F)c(Cl)cn2)CC1 (stereo not drawn) [Example 115, 5-Chloro-4-[(4-chlorophenylthio)-(2,5-difluorophenyl)methyl]-2-(4′-hydroxypiperidin-1′-yl)pyridine]",,< 5
"Nc1cc(C(c2cc(F)ccc2F)S(=O)(=O)c2ccc(Cl)cc2)c(F)cn1 (stereo not drawn) [Example 203, [4-[(4-Chlorophenylsulfonyl)(2,5-difluorophenyl)methyl]-5-fluoropyridin-2-yl]amine]",181 to 183,5 to 50
"Nc1cc(C(c2cc(F)ccc2F)S(=O)(=O)c2ccc(F)cc2)c(Cl)cn1 (stereo not drawn) [Example 215, [5-Chloro-4-[(2,5-difluorophenyl)-(4-fluorophenylsulfonyl)methyl]pyridin-2-yl]amine]",157 to 159,< 5
"CS(=O)(=O)Nc1cc(C(c2cc(F)ccc2F)S(=O)(=O)c2ccc(F)cc2)c(Cl)cn1 (stereo not drawn) [Example 216, N-[5-Chloro-4-[(2,5-difluorophenyl)-(4-fluorophenylsulfonyl)methyl]pyridin-2-yl]methanesulfonamide]",178 to 179,< 5
"CS(=O)(=O)Nc1cc(C(c2cc(F)ccc2F)[S+]([O-])c2ccc(Cl)cc2)c(Cl)cn1 (stereo not drawn) [Example 221, N-[5-Chloro-4-[(4-chlorophenylsulfinyl)(2,5-difluorophenyl)methyl]pyridin-2-yl]methanesulfonamide]",,< 5
"N#Cc1ccc(F)c(C(c2cc(N)ncc2Cl)S(=O)(=O)c2ccc(Cl)cc2)c1 (stereo not drawn) [Example 234, 3-[(2-Amino-5-chloropyridin-4-yl)(4-chlorophenylsulfonyl)methyl]-4-fluorobenzonitrile]",> 220,< 5
"CS(=O)(=O)Nc1cc(C(c2cc(C#N)ccc2F)S(=O)(=O)c2ccc(Cl)cc2)c(Cl)cn1 (stereo not drawn) [Example 236, N-[5-Chloro-4-[(4-chlorophenylsulfonyl)(5-cyano-2-fluorophenyl)methyl]pyridin-2-yl]methanesulfonamide]",118 to 120,< 5
"COc1cc(S(=O)(=O)C(c2cc(F)ccc2F)c2cc(N)ncc2Cl)ccc1Cl (stereo not drawn) [Example 239, [5-Chloro-4-[(4-chloro-3-methoxyphenylsulfonyl)(2,5-difluorophenyl)methyl]pyridin-2-yl]amine]",198 to 200,50 to 500

# Further lines, results first:
melting point [°C],IC50 [1] [nM],SMILES
160 to 161,5 to 50,"O=S(=O)(c1ccc(Cl)cc1)C(c1cc(F)ccc1F)c1ccncc1Cl (stereo not drawn) [Example 55, 3-Chloro-4-[(4-chlorophenylsulfonyl)-(2,5-difluorophenyl)methyl]pyridine]"
,5 to 50,"CNCCN(C)c1cc(C(c2cc(F)ccc2F)S(=O)(=O)c2ccc(Cl)cc2)c(Cl)cn1 (stereo not drawn) [Example 109, 5-Chloro-4-[(4-chlorophenylsulfonyl)-(2,5-difluorophenyl)methyl]-2-[N-methyl-N-[2-(methylamino)ethyl]amino]pyridine]"
,5 to 50,O=S(=O)(c1ccc(Cl)cc1)C(c1cc(F)ccc1F)c1cc(N2CCC[C@H]2CO)ncc1Cl (stereo partly drawn) [Example 111]
146 to 148,5 to 50,"O=S(=O)(c1ccc(Cl)cc1)C(c1cc(F)ccc1F)c1cc(N2CCC(O)CC2)ncc1Cl (stereo not drawn) [Example 116, 5-Chloro-4-[(4-chlorophenylsulfonyl)-(2,5-difluorophenyl)methyl]-2-(4′-hydroxypiperidin-1′-yl)pyridine]"
88 to 89,< 5,"CN(CCO)c1cc(C(c2cc(F)ccc2F)S(=O)(=O)c2ccc(Cl)cc2)c(Cl)cn1 (stereo not drawn) [Example 164, 2-[[5-Chloro-4-[(4-chlorophenylsulfonyl)-(2,5-difluorophenyl)methyl]pyridin-2-yl](methyl)amino]ethanol]"
168 to 169,< 5,"O=S(=O)(c1ccc(Cl)cc1)C(c1cc(F)ccc1F)c1cc(NCCO)ncc1Cl (stereo not drawn) [Example 168, 2-[[5-Chloro-4-[(4-chlorophenylsulfonyl)-(2,5-difluorophenyl)methyl]pyridin-2-yl]amino]ethanol]"
,< 5,"CS(=O)(=O)CCNc1cc(C(c2cc(F)ccc2F)S(=O)(=O)c2ccc(Cl)cc2)c(Cl)cn1 (stereo not drawn) [Example 176, 5-Chloro-4-[(4-chlorophenylsulfonyl)-(2,5-difluorophenyl)methyl]-2-[(2-methylsulfonylethyl)amino]pyridine]"
147 to 150,< 5,"Nc1cc(C(c2cc(F)ccc2F)S(=O)(=O)c2ccc(Cl)cc2)c(Cl)cn1 (stereo not drawn) [Example 196, [5-Chloro-4-[(4-chlorophenylsulfonyl)(2,5-difluorophenyl)methyl]pyridin-2-yl]amine]"
220 to 222,< 5,"CS(=O)(=O)Nc1cc(C(c2cc(F)ccc2F)S(=O)(=O)c2ccc(Cl)cc2)c(Cl)cn1 (stereo not drawn) [Example 197, N-[5-Chloro-4-[(4-chlorophenylsulfonyl)(2,5-difluorophenyl)methyl]pyridin-2-yl]methanesulfonamide]"
188 to 189,< 5,"Cc1cnc(N)cc1C(c1cc(F)ccc1F)S(=O)(=O)c1ccc(Cl)cc1 (stereo not drawn) [Example 211, [4-[(4-Chlorophenylsulfonyl)(2,5-difluorophenyl)methyl]-5-methylpyridin-2-yl]amine]"
,5 to 50,"NNc1cc(C(c2cc(F)ccc2F)S(=O)(=O)c2ccc(Cl)cc2)c(Cl)cn1 (stereo not drawn) [Example 222, [5-Chloro-4-[(4-chlorophenylsulfonyl)(2,5-difluorophenyl)methyl]pyridin-2-yl]hydrazine]"
152 to 154,5 to 50,"CS(=O)(=O)N(N)c1cc(C(c2cc(F)ccc2F)S(=O)(=O)c2ccc(Cl)cc2)c(Cl)cn1 (stereo not drawn) [Example 225, 1-[5-Chloro-4-[(4-chlorophenylsulfonyl)(2,5-difluorophenyl)methyl]pyridin-2-yl]-1-methylsulfonylhydrazine]"
,< 5,"CN(C)CCS(=O)(=O)Nc1cc(C(c2cc(F)ccc2F)S(=O)(=O)c2ccc(Cl)cc2)c(Cl)cn1 (stereo not drawn) [Example 279, N-[5-Chloro-4-[(4-chlorophenylsulfonyl)(2,5-difluorophenyl)methyl]pyridin-2-yl]-2-(dimethylamino)ethanesulfonamide]"
